In US12350288B2, “Inducing caspase activity” (Dow Global Technologies LLC, priority 2019, dated 2025):

Test system: HT-29 cells (human colon; colorectal adenocarcinoma)
Method: HT-29 (ATCC® HTB-38™) cells (which contained approximately 1×10^6 cells per mL) were initiated and seeded into a T-25 flask containing McCoy's 5A and fetal bovine serum (10% (v/v)). […] The cells were grown in a humidified incubator (SANYO INCT-16-CMT; MCO-19AIC (UV)) maintained at 37° C. and 5% CO2. Then, the cells were rinsed with 1× Dulbecco's Phosphate-Buffered Saline and sub-cultured in T-75 flasks 1 to 3 times per week using 1× Trypsin-EDTA, applied for ≤5 minutes; enzymatic action of the trypsin-EDTA was stopped by adding complete growth medium to the detached cells. Then, upon reaching 80 to 90% confluency the cells were split into the following split ratio ranges: 1:5 to 1:16. Subculture and growth expansion activities were recorded, such as passage number, % confluency, % viability (only on experimental set-up day), and cell morphology throughout all phases. The cells were maintained in log-phase growth.
Cell culture plating was performed as follows. A cell suspension from a single 80 to 90% confluent T-75 flask was harvested with trypsin-EDTA and complete growth medium. To obtain cell concentration and viability, cell counts were obtained using a COUNTESS automated cell counter (INVITROGEN C10227; CNTR-7-CMT) in which 2 chambers of each slide were provided with 10 μL each of 1:1, 0.4% trypan-blue dye (INVITROGEN T10282) and cell suspension. […]

With “Poly(ethylene glycol) methyl ether tosylate” as the substance, how does the viability read?
Its viability is at least 70%.
